According to patent US20230398125A1, “TREATING HEPATITIS” (Albireo AB, priority 2022, published 2023):

Biological target: T1, Human NTCP (Homo sapiens, UniProt Q14973)
T1 construct: expressed in transfected cells; peptide purchased from Pharmaron
T1 sequence (Q14973 1-349): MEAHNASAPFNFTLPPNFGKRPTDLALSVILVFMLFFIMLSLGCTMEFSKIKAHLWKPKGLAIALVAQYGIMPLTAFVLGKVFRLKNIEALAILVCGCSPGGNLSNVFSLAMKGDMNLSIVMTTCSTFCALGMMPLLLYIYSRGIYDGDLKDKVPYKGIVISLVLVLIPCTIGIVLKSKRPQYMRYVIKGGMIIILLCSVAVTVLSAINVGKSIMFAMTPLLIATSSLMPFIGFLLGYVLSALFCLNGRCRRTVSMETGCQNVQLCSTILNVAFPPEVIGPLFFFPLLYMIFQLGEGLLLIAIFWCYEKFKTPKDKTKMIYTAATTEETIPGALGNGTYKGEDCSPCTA
Assay: 3H-taurocholic acid uptake in human NTCP-overexpressing cells
Format: cell-based
Conditions: 3H-taurocholic acid transport
Method: 20,000 cells (Human & Mouse NTCP-overexpressing cells) were seeded in 96-well plate in 100 μL MEM-alpha medium supplemented with 10% FBS containing geneticin (1 mg/mL) and incubated at 37° C. in 5% CO2 for 24 hrs. After incubation, media was decanted from the wells and cells were washed two times with 250 μL of basal MEM-alpha medium (FBS-free). After each wash, plates were tapped against a paper towel to ensure maximum removal of residual media. For Human NTCP (hNTCP), incubation mix was prepared by adding test inhibitor dilutions (3-fold serial dilution in DMSO, 10 concentrations) in MEM-alpha (without FBS) containing 0.3 μM ^3H-taurocholic acid and 7.5 μM cold taurocholic acid (maintaining 0.2% final DMSO concentration). […]
The plates were tapped against a paper towel after every wash to ensure maximum removal of blocking buffer. 100 μL of MicroScint-20 was added to the wells and kept overnight at room temperature before reading the plates in MicroBeta2 liquid Scintillation Counter from PerkinElmer under 3H Test for I/L-BAT protocol (set at 120 seconds reading time per well, with normal plate orientation).
Percentage inhibitions were calculated with respect to the assay controls. […]

**Q.** With CCCCC1CN(c2ccccc2)c2cc(SC)c(O/C=C(\F)C(=O)O)cc2S(=O)(=O)N1C (stereo not shown) [Compound 1, (Z)-3-((3-butyl-2-methyl-7-(methylthio)-1,1-dioxido-5-phenyl-2,3,4,5-tetrahydro-1,2,5-benzothiadiazepin-8-yl)oxy)-2-fluoroacrylic acid] as the molecule, how does the IC50 read?
**A.** The IC50 was 0.53 ± 0.081 nM.
